Experimental data published in US8796244B2, “Imidazopyridine derivatives as inhibitors of receptor tyrosine kinases” (Astex Therapeutics Ltd, priority 2008, dated 2014).
pIC50: −log10 of the molar value. Where a name gives a salt, the structure may show the parent alone. Read-outs that look alike come from different tables or passages of the source.

Columns and labels:
[1] = test system: parental wild-type Ba/F3 cells; assay: Ba/F3 (WT) cell proliferation assay (Alamar Blue); assay type: cell-based; conditions: Mus musculus; for IC50: BaF3, 72 h, read-out: BaF3 WT prolif (μM); for pIC50: BaF3, 72 hours, Alamar Blue, read-out: BaF3 WT prolif
[2] = test system: LP-1 cell line (FGF-1/Heparin induced pERK); assay: Cell-based pERK ELISA, LP-1 cells; conditions: Homo sapiens; for IC50: LP-1, read-out: LP-1 pERK ELISA (μM)
[3] = BaF3, read-out: BaF3 WT prolif, % inhibition

Row | Structure (SMILES) | IC50 [1] | IC50 [2] | other results
1 | Cc1ccnc(-c2ccn3c(-c4cccc(NC(=O)NCC(F)(F)F)c4)cnc3c2)n1 [Example 59, 1-{3-[7-(4-Methyl-pyrimidin-2-yl)-imidazo[1,2-a]pyridin-3-yl]-phenyl}-3-(2,2,2-trifluoro-ethyl)-urea hydrochloride] | 5.1 µM | 0.1 µM | –
2 | O=C(NCC(F)(F)F)Nc1cccc(-c2cnc3cc(-c4ncc(F)cn4)ccn23)c1 [Example 60, 1-{3-[7-(5-Fluoro-pyrimidin-2-yl)-imidazo[1,2-a]pyridin-3-yl]-phenyl}-3-(2,2,2-trifluoro-ethyl)-urea hydrochloride] | – | 0.087 µM | inhibition at 10 µM [1, 3]: 0%
3 | Cc1nccc(-c2ccn3c(-c4cccc(NC(=O)NCC(F)(F)F)c4)cnc3c2)n1 [Example 61, 1-{3-[7-(2-Methyl-pyrimidin-4-yl)-imidazo[1,2-a]pyridin-3-yl]-phenyl}-3-(2,2,2-trifluoro-ethyl)-urea hydrochloride] | – | 0.064 µM | inhibition at 10 µM [1, 3]: 15%
4 | Cn1nc(-c2ccn3c(-c4cccc(NC(=O)NCC(F)(F)F)c4)cnc3c2)ccc1=O [Example 62, 1-{3-[7-(1-Methyl-6-oxo-1,6-dihydro-pyridazin-3-yl)-imidazo[1,2-a]pyridin-3-yl]-phenyl}-3-(2,2,2-trifluoro-ethyl)-urea hydrochloride] | 1.1 µM | 0.11 µM | –
5 | Cc1ncc(C#Cc2ccn3c(-c4cccc(NC(=O)NCC(F)(F)F)c4)cnc3c2)n1C [Example 64, 1-{3-[7-(2,3-Dimethyl-3H-imidazol-4-ylethynyl)-imidazo[1,2-a]pyridin-3-yl]-phenyl}-3-(2,2,2-trifluoro-ethyl)-urea] | – | 0.049 µM | pIC50 [1]: 5.60
6 | CN1CCC(O)(C#Cc2ccn3c(-c4cccc(NC(=O)NCC(F)(F)F)c4)cnc3c2)CC1 [Example 65, 1-{3-[7-(4-Hydroxy-1-methyl-piperidin-4-ylethynyl)-imidazo[1,2-a]pyridin-3-yl]-phenyl}-3-(2,2,2-trifluoro-ethyl)-urea formate] | – | 1.3 µM | inhibition at 10 µM [1, 3]: 8.3%
7 | O=C(NCC(F)(F)F)Nc1cccc(-c2cnc3cc(-c4ccc(NCCO)nn4)ccn23)c1 [Example 67, 1-(3-{7-[6-(2-Hydroxy-ethylamino)-pyridazin-3-yl]-imidazo[1,2-a]pyridin-3-yl}-phenyl)-3-(2,2,2-trifluoro-ethyl)-urea] | – | 0.84 µM | pIC50 [1]: 5.68
8 | NC1CCN(c2ccc(-c3ccn4c(-c5cccc(NC(=O)NCC(F)(F)F)c5)cnc4c3)nn2)CC1 [Example 75, 1-(3-{7-[6-(4-Amino-piperidin-1-yl)-pyridazin-3-yl]-imidazo[1,2-a]pyridin-3-yl}-phenyl)-3-(2,2,2-trifluoro-ethyl)-urea tris-trifluoroacetate] | – | 0.63 µM | inhibition at 10 µM [1, 3]: 32%
9 | CN1CCC(Nc2ccc(-c3ccn4c(-c5cccc(NC(=O)NCC(F)(F)F)c5)cnc4c3)nn2)CC1 [Example 76, 1-(3-{7-[6-(1-Methyl-piperidin-4-ylamino)-pyridazin-3-yl]-imidazo[1,2-a]pyridin-3-yl}-phenyl)-3-(2,2,2-trifluoro-ethyl)-urea tri-hydrochloride] | – | 0.51 µM | inhibition at 10 µM [1, 3]: 26%
10 | O=C(NCC(F)(F)F)Nc1cccc(-c2cnc3cc(-c4cccnc4)ccn23)c1 [Example 78, 1-[3-(7-Pyridin-3-yl-imidazo[1,2-a]pyridin-3-yl)-phenyl]-3-(2,2,2-trifluoro-ethyl)-urea] | – | 0.017 µM | pIC50 [1]: 6.82
11 | CN1CCN(c2ncc(-c3ccn4c(-c5cccc(NC(=O)NCC(F)(F)F)c5)cnc4c3)cn2)CC1 [Example 79, 1-(3-{7-[2-(4-Methyl-piperazin-1-yl)-pyrimidin-5-yl]-imidazo[1,2-a]pyridin-3-yl}-phenyl)-3-(2,2,2-trifluoro-ethyl)-urea bis-formate] | 0.4 µM | 0.035 µM | –
12 | COCCNc1ccc(-c2ccn3c(-c4cccc(NC(=O)NCC(F)(F)F)c4)cnc3c2)nn1 [Example 80, 1-(3-{7-[6-(2-Methoxy-ethylamino)-pyridazin-3-yl]-imidazo[1,2-a]pyridin-3-yl}-phenyl)-3-(2,2,2-trifluoro-ethyl)-urea hydrochloride] | – | 0.039 µM | inhibition at 10 µM [1, 3]: 0%
13 | CC(C)(CO)Nc1ccc(-c2ccn3c(-c4cccc(NC(=O)NCC(F)(F)F)c4)cnc3c2)nn1 [Example 81, 1-(3-{7-[6-(2-Hydroxy-1,1-dimethyl-ethylamino)-pyrid-azin-3-yl]-1,7-dihydro-imidazo[1,2-a]pyridin-3-yl}-phenyl)-3-(2,2,2-trifluoro-ethyl)-urea hydrochloride] | – | 0.028 µM | inhibition at 3 µM [1, 3]: 20%
14 | Nc1cnc(-c2ccn3c(-c4cccc(NC(=O)NCC(F)(F)F)c4)cnc3c2)cn1 [Example 85, 1-{3-[7-(5-Amino-pyrazin-2-yl)-imidazo[1,2-a]pyridin-3-yl]-phenyl}-3-(2,2,2-trifluoro-ethyl)-urea formate] | 0.17 µM | 0.065 µM | –
15 | Cn1ccc(C#Cc2ccn3c(-c4cccc(NC(=O)NCC(F)(F)F)c4)cnc3c2)n1 [Example 86, 1-{3-[7-(1-Methyl-1H-pyrazol-3-ylethynyl)-imidazo[1,2-a]pyridin-3-yl]-phenyl}-3-(2,2,2-trifluoro-ethyl)-urea formate] | 1.9 µM | 0.04 µM | –
16 | O=C(NCC(F)(F)F)Nc1cccc(-c2cnc3cc(-c4cnc(N5CC(F)(F)C5)nc4)ccn23)c1 [Example 87, 1-(3-{7-[2-(3,3-Difluoro-azetidin-1-yl)-pyrimidin-5-yl]-imidazo[1,2-a]pyridin-3-yl}-phenyl)-3-(2,2,2-trifluoro-ethyl)-urea bis-trifluoroacetate] | 0.41 µM | 0.072 µM | –
17 | O=C(NCC(F)(F)F)Nc1cccc(-c2cnc3cc(-c4ccnnc4)ccn23)c1 [Example 88, 1-[3-(7-Pyridazin-4-yl-imidazo[1,2-a]pyridin-3-yl)-phenyl]-3-(2,2,2-trifluoro-ethyl)-urea formate] | – | – | inhibition at 10 µM [1, 3]: 0%; inhibition at 10 µM ([2]; LP-1, read-out: LP-1 pERK ELISA, % inhibition): 16%
18 | COc1cnc(-c2ccn3c(-c4cccc(NC(=O)NCC(F)(F)F)c4)cnc3c2)cn1 [Example 89, 1-{3-[7-(5-Methoxy-pyrazin-2-yl)-imidazo[1,2-a]pyridin-3-yl]-phenyl}-3-(2,2,2-trifluoro-ethyl)-urea] | – | 0.073 µM | pIC50 [1]: 7.01
19 | COc1cncc(-c2ccn3c(-c4cccc(NC(=O)NCC(F)(F)F)c4)cnc3c2)n1 [Example 90, 1-{3-[7-(6-Methoxy-pyrazin-2-yl)-imidazo[1,2-a]pyridin-3-yl]-phenyl}-3-(2,2,2-trifluoro-ethyl)-urea formate] | 0.76 µM | 0.092 µM | –
20 | Cc1ccc(-c2ccn3c(-c4cccc(NC(=O)NCC(F)(F)F)c4)cnc3c2)nc1 [Example 91, 1-{3-[7-(5-Methyl-pyridin-2-yl)-imidazo[1,2-a]pyridin-3-yl]-phenyl}-3-(2,2,2-trifluoro-ethyl)-urea formate] | 0.1 µM | 0.0079 µM | –
21 | O=C(NCC(F)(F)F)Nc1cccc(-c2cnc3cc(-c4ccc(CO)cn4)ccn23)c1 [Example 92, 1-{3-[7-(5-Hydroxymethyl-pyridin-2-yl)-imidazo[1,2-a]pyridin-3-yl]-phenyl}-3-(2,2,2-trifluoro-ethyl)-urea formate] | 0.53 µM | 0.11 µM | –
22 | Cc1cnc(-c2ccn3c(-c4cccc(NC(=O)NCC(F)(F)F)c4)cnc3c2)cn1 [Example 93, 1-{3-[7-(5-Methyl-pyrazin-2-yl)-imidazo[1,2-a]pyridin-3-yl]-phenyl}-3-(2,2,2-trifluoro-ethyl)-urea] | – | 0.065 µM | pIC50 [1]: 7.37
23 | O=C1CN(c2ncc(-c3ccn4c(-c5cccc(NC(=O)NCC(F)(F)F)c5)cnc4c3)cn2)CCN1 [Example 94, 1-(3-{7-[2-(3-Oxo-piperazin-1-yl)-pyrimidin-5-yl]-imidazo[1,2-a]pyridin-3-yl}-phenyl)-3-(2,2,2-trifluoro-ethyl)-urea hydrochloride] | 5.8 µM | 0.95 µM | –
24 | O=C1CN(c2ccc(-c3ccn4c(-c5cccc(NC(=O)NCC(F)(F)F)c5)cnc4c3)nn2)CCN1 [Example 95, 1-(3-{7-[6-(3-Oxo-piperazin-1-yl)-pyridazin-3-yl]-imidazo[1,2-a]pyridin-3-yl}-phenyl)-3-(2,2,2-trifluoro-ethyl)-urea bis-hydrochloride] | – | 3.4 µM | inhibition at 10 µM [1, 3]: 0%
25 | O=C(NCC(F)(F)F)Nc1cccc(-c2cnc3cc(-c4ccc(F)cn4)ccn23)c1 [Example 96, 1-{3-[7-(5-Fluoro-pyridin-2-yl)-imidazo[1,2-a]pyridin-3-yl]-phenyl}-3-(2,2,2-trifluoro-ethyl)-urea bis-hydrochloride] | 1.7 µM | 0.0063 µM | –
26 | Cc1ccnc(-c2ccn3c(-c4cccc(NC(=O)NCC(F)(F)F)c4)cnc3c2)c1 [Example 97, 1-{3-[7-(4-Methyl-pyridin-2-yl)-imidazo[1,2-a]pyridin-3-yl]-phenyl}-3-(2,2,2-trifluoro-ethyl)-urea bis-hydrochloride] | 0.44 µM | 0.0081 µM | –
27 | Cc1cccc(-c2ccn3c(-c4cccc(NC(=O)NCC(F)(F)F)c4)cnc3c2)n1 [Example 98, 1-{3-[7-(6-Methyl-pyridin-2-yl)-imidazo[1,2-a]pyridin-3-yl]-phenyl}-3-(2,2,2-trifluoro-ethyl)-urea bis-hydrochloride] | 0.7 µM | 0.02 µM | –
28 | CCOc1cccc(-c2ccn3c(-c4cccc(NC(=O)NCC(F)(F)F)c4)cnc3c2)n1 [Example 99, 1-{3-[7-(6-Ethoxy-pyridin-2-yl)-imidazo[1,2-a]pyridin-3-yl]-phenyl}-3-(2,2,2-trifluoro-ethyl)-urea bis-hydrochloride] | 0.32 µM | 0.063 µM | –
29 | Cc1cncc(-c2ccn3c(-c4cccc(NC(=O)NCC(F)(F)F)c4)cnc3c2)n1 [Example 100, 1-{3-[7-(6-Methyl-pyrazin-2-yl)-imidazo[1,2-a]pyridin-3-yl]-phenyl}-3-(2,2,2-trifluoro-ethyl)-urea] | – | 0.09 µM | pIC50 [1]: 6.01
